Results: US9763445B2, “Safened herbicidal compositions comprising a pyridine carboxylic acid herbicide” (Dow AgroSciences, LLC, priority 2014, dated 2017)
Where two headings read alike, the source gives them in different places.

Tests used:
spring barley (HORVS) = assay: Postemergence greenhouse trial, % visual injury on spring barley; type: in vivo, Hordeum vulgare
In short: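 Greenhouse crops at second to third true leaf stage sprayed postemergence at 187 L/ha with herbicide (g ae/ha) plus safener (g ai/ha) in acetone/DMSO diluted into 1.5% v/v Agri-dex. Injury scored visually versus solvent-blank controls after 20-22 d, 0 (none) to 100% (complete kill); expected mixture effects by Colby's equation.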

lambsquarters (CHEAL) = assay: Postemergence greenhouse trial, % visual injury on lambsquarters; type: in vivo, Chenopodium album
In short: (§1)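 Plants at second or third true leaf stage, greenhouse-grown (14 h photoperiod, ~23/22° C.), sprayed postemergence with compounds alone or with safener cloquintocet-mexyl in 1.5% v/v Agri-dex crop oil at 187 L/ha. Visual injury scored 0–100% versus solvent-blank controls after 20-22 d; expected mixture effects by Colby's equation.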

thistle (CIRAR) = assay: Postemergence greenhouse trial, % visual injury on thistle; type: in vivo, Cirsium arvense
In short: as §1

kochia (KCHSC) = assay: Postemergence greenhouse trial, % visual injury on kochia; type: in vivo, Kochia scoparia
In short: (§2)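 Herbicide rates g ae/ha, safener (cloquintocet-mexyl) rates g ai/ha; spray carrier 1.5% v/v crop oil concentrate, 187 L/ha, 2nd–3rd leaf stage. Rating: visual % injury at 20-22 d.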

Russian thistle (SASKR) = assay: Postemergence greenhouse trial, % visual injury on Russian thistle; type: in vivo, Salsola kali
wild mustard (SINAR) = assay: Postemergence greenhouse trial, % visual injury on wild mustard; type: in vivo, Sinapis arvensis
In short: as §2

[1] = Chenopodium album, post-emergence, alone, 35 g/ha, read-out: % visual injury, Ob
[2] = Cirsium arvense, post-emergence, alone, 35 g/ha, read-out: % visual injury, Ob

Structure (SMILES): CCCCOC(=O)c1nc(-c2ccc3cc[nH]c3c2F)c(F)c(N)c1Cl [compound 9]
- % visual injury, Ob (spring barley (HORVS); HORVS, compound 4.380 g/ha, CQC-m 0): 10%
- % visual injury, Ob (spring barley (HORVS); HORVS, compound 8.75 g/ha, CQC-m 0): 20%
- % visual injury, Ob (spring barley (HORVS); HORVS, compound 17.5 g/ha, CQC-m 0): 30%
- % visual injury, Ob (spring barley (HORVS); HORVS, compound 35 g/ha, CQC-m 0): 40%
- % visual injury, Ob (spring barley (HORVS); HORVS, compound 70 g/ha, CQC-m 0): 50%
- pest or weed control at 4.38 g/ha (lambsquarters (CHEAL); Chenopodium album, post-emergence, CHEAL, compound 4.380 g/ha, CQC-m 0, read-out: % visual injury, Ob): 85%
- pest or weed control at 8.75 g/ha (lambsquarters (CHEAL); Chenopodium album, post-emergence, CHEAL, compound 8.75 g/ha, CQC-m 0, read-out: % visual injury, Ob): 80%
- pest or weed control at 17.5 g/ha (lambsquarters (CHEAL); Chenopodium album, post-emergence, CHEAL, compound 17.5 g/ha, CQC-m 0, read-out: % visual injury, Ob): 95%
- pest or weed control at 35 g/ha (lambsquarters (CHEAL); Chenopodium album, post-emergence, CHEAL, compound 35 g/ha, CQC-m 0, read-out: % visual injury, Ob): 100%
- pest or weed control at 70 g/ha (lambsquarters (CHEAL); Chenopodium album, post-emergence, CHEAL, compound 70 g/ha, CQC-m 0, read-out: % visual injury, Ob): 100%
- pest or weed control at 4.38 g/ha (thistle (CIRAR); Cirsium arvense, post-emergence, CIRAR, compound 4.380 g/ha, CQC-m 0, read-out: % visual injury, Ob): 10%
- pest or weed control at 8.75 g/ha (thistle (CIRAR); Cirsium arvense, post-emergence, CIRAR, compound 8.75 g/ha, CQC-m 0, read-out: % visual injury, Ob): 30%
- pest or weed control at 17.5 g/ha (thistle (CIRAR); Cirsium arvense, post-emergence, CIRAR, compound 17.5 g/ha, CQC-m 0, read-out: % visual injury, Ob): 70%
- pest or weed control at 35 g/ha (thistle (CIRAR); Cirsium arvense, post-emergence, CIRAR, compound 35 g/ha, CQC-m 0, read-out: % visual injury, Ob): 95%
- pest or weed control at 70 g/ha (thistle (CIRAR); Cirsium arvense, post-emergence, CIRAR, compound 70 g/ha, CQC-m 0, read-out: % visual injury, Ob): 97%
- pest or weed control at 4.38 g/ha (kochia (KCHSC); Bassia scoparia, post-emergence, KCHSC, compound 4.380 g/ha, CQC-m 0, read-out: % visual injury, Ob): 60%
- pest or weed control at 8.75 g/ha (kochia (KCHSC); Bassia scoparia, post-emergence, KCHSC, compound 8.75 g/ha, CQC-m 0, read-out: % visual injury, Ob): 60%
- pest or weed control at 17.5 g/ha (kochia (KCHSC); Bassia scoparia, post-emergence, KCHSC, compound 17.5 g/ha, CQC-m 0, read-out: % visual injury, Ob): 85%
- pest or weed control at 35 g/ha (kochia (KCHSC); Bassia scoparia, post-emergence, KCHSC, compound 35 g/ha, CQC-m 0, read-out: % visual injury, Ob): 100%
- pest or weed control at 70 g/ha (kochia (KCHSC); Bassia scoparia, post-emergence, KCHSC, compound 70 g/ha, CQC-m 0, read-out: % visual injury, Ob): 100%
- % visual injury, Ob (Russian thistle (SASKR); SASKR, compound 4.380 g/ha, CQC-m 0): 65%
- % visual injury, Ob (Russian thistle (SASKR); SASKR, compound 8.75 g/ha, CQC-m 0): 70%
- % visual injury, Ob (Russian thistle (SASKR); SASKR, compound 17.5 g/ha, CQC-m 0): 80%
- % visual injury, Ob (Russian thistle (SASKR); SASKR, compound 35 g/ha, CQC-m 0): 85%
- % visual injury, Ob (Russian thistle (SASKR); SASKR, compound 70 g/ha, CQC-m 0): 87%
- pest or weed control at 4.38 g/ha (wild mustard (SINAR); Brassica, post-emergence, SINAR, compound 4.380 g/ha, CQC-m 0, read-out: % visual injury, Ob): 93%
- pest or weed control at 8.75 g/ha (wild mustard (SINAR); Brassica, post-emergence, SINAR, compound 8.75 g/ha, CQC-m 0, read-out: % visual injury, Ob): 95%
- pest or weed control at 17.5 g/ha (wild mustard (SINAR); Brassica, post-emergence, SINAR, compound 17.5 g/ha, CQC-m 0, read-out: % visual injury, Ob): 95%
- pest or weed control at 35 g/ha (wild mustard (SINAR); Brassica, post-emergence, SINAR, compound 35 g/ha, CQC-m 0, read-out: % visual injury, Ob): 100%
- pest or weed control at 70 g/ha (wild mustard (SINAR); Brassica, post-emergence, SINAR, compound 70 g/ha, CQC-m 0, read-out: % visual injury, Ob): 100%

Structure (SMILES): Nc1c(F)c(-c2ccc3cc[nH]c3c2F)nc(C(=O)OCc2ccccc2)c1Cl [compound 2]
- % visual injury, observed (Ob) (lambsquarters (CHEAL); CHEAL, compound 2 4.380 + CQC-m 0 g/ha): 85%
- % visual injury, observed (Ob) (lambsquarters (CHEAL); CHEAL, compound 2 8.75 + CQC-m 0 g/ha): 95%
- % visual injury, observed (Ob) (lambsquarters (CHEAL); CHEAL, compound 2 17.5 + CQC-m 0 g/ha): 97%
- % visual injury, observed (Ob) (lambsquarters (CHEAL); CHEAL, compound 2 35 + CQC-m 0 g/ha): 100%
- % visual injury, observed (Ob) (lambsquarters (CHEAL); CHEAL, compound 2 70 + CQC-m 0 g/ha): 100%
- pest or weed control at 35 g/ha (lambsquarters (CHEAL); [1]): 97%
- % visual injury, observed (Ob) (thistle (CIRAR); CIRAR, compound 2 4.380 + CQC-m 0 g/ha): 35%
- % visual injury, observed (Ob) (thistle (CIRAR); CIRAR, compound 2 8.75 + CQC-m 0 g/ha): 63%
- % visual injury, observed (Ob) (thistle (CIRAR); CIRAR, compound 2 17.5 + CQC-m 0 g/ha): 80%
- % visual injury, observed (Ob) (thistle (CIRAR); CIRAR, compound 2 35 + CQC-m 0 g/ha): 99%
- % visual injury, observed (Ob) (thistle (CIRAR); CIRAR, compound 2 70 + CQC-m 0 g/ha): 99%
- pest or weed control at 35 g/ha (thistle (CIRAR); [2]): 70%
- % visual injury, observed (Ob) (kochia (KCHSC); KCHSC, compound 2 4.380 + CQC-m 0 g/ha): 93%
- % visual injury, observed (Ob) (kochia (KCHSC); KCHSC, compound 2 8.75 + CQC-m 0 g/ha): 95%
- % visual injury, observed (Ob) (kochia (KCHSC); KCHSC, compound 2 17.5 + CQC-m 0 g/ha): 98%
- % visual injury, observed (Ob) (kochia (KCHSC); KCHSC, compound 2 35 + CQC-m 0 g/ha): 99%
- % visual injury, observed (Ob) (kochia (KCHSC); KCHSC, compound 2 70 + CQC-m 0 g/ha): 100%
- % visual injury, observed (Ob) (kochia (KCHSC); KCHSC, compound 2 140 + CQC-m 0 g/ha): 95%
- % visual injury, observed (Ob) (Russian thistle (SASKR); SASKR, compound 2 4.380 + CQC-m 0 g/ha): 75%
- % visual injury, observed (Ob) (Russian thistle (SASKR); SASKR, compound 2 8.75 + CQC-m 0 g/ha): 85%
- % visual injury, observed (Ob) (Russian thistle (SASKR); SASKR, compound 2 17.5 + CQC-m 0 g/ha): 89%
- % visual injury, observed (Ob) (Russian thistle (SASKR); SASKR, compound 2 35 + CQC-m 0 g/ha): 92%
- % visual injury, observed (Ob) (Russian thistle (SASKR); SASKR, compound 2 70 + CQC-m 0 g/ha): 92%
- % visual injury, observed (Ob) (wild mustard (SINAR); SINAR, compound 2 4.380 + CQC-m 0 g/ha): 94%
- % visual injury, observed (Ob) (wild mustard (SINAR); SINAR, compound 2 8.75 + CQC-m 0 g/ha): 95%
- % visual injury, observed (Ob) (wild mustard (SINAR); SINAR, compound 2 17.5 + CQC-m 0 g/ha): 99%
- % visual injury, observed (Ob) (wild mustard (SINAR); SINAR, compound 2 35 + CQC-m 0 g/ha): 100%
- % visual injury, observed (Ob) (wild mustard (SINAR); SINAR, compound 2 70 + CQC-m 0 g/ha): 100%

Structure (SMILES): Nc1c(F)c(-c2ccc3cc[nH]c3c2F)nc(C(=O)O)c1Cl [compound 1]
- % visual injury, Ob (spring barley (HORVS); alone, 4.375 g/ha): 13%
- % visual injury, Ob (spring barley (HORVS); alone, 8.75 g/ha): 13%
- % visual injury, Ob (spring barley (HORVS); alone, 17.5 g/ha): 24%
- % visual injury, Ob (spring barley (HORVS); alone, 35 g/ha): 32%
- % visual injury, Ob (spring barley (HORVS); alone, 70 g/ha): 41%
- pest or weed control at 4.375 g/ha (lambsquarters (CHEAL); Chenopodium album, post-emergence, alone, 4.375 g/ha, read-out: % visual injury, Ob): 86%
- pest or weed control at 8.75 g/ha (lambsquarters (CHEAL); Chenopodium album, post-emergence, alone, 8.75 g/ha, read-out: % visual injury, Ob): 95%
- pest or weed control at 17.5 g/ha (lambsquarters (CHEAL); Chenopodium album, post-emergence, alone, 17.5 g/ha, read-out: % visual injury, Ob): 99%
- pest or weed control at 35 g/ha (lambsquarters (CHEAL); [1]): 100%
- pest or weed control at 70 g/ha (lambsquarters (CHEAL); Chenopodium album, post-emergence, alone, 70 g/ha, read-out: % visual injury, Ob): 100%
- pest or weed control at 4.375 g/ha (thistle (CIRAR); Cirsium arvense, post-emergence, alone, 4.375 g/ha, read-out: % visual injury, Ob): 35%
- pest or weed control at 8.75 g/ha (thistle (CIRAR); Cirsium arvense, post-emergence, alone, 8.75 g/ha, read-out: % visual injury, Ob): 62%
- pest or weed control at 17.5 g/ha (thistle (CIRAR); Cirsium arvense, post-emergence, alone, 17.5 g/ha, read-out: % visual injury, Ob): 80%
- pest or weed control at 35 g/ha (thistle (CIRAR); [2]): 90%
- pest or weed control at 70 g/ha (thistle (CIRAR); Cirsium arvense, post-emergence, alone, 70 g/ha, read-out: % visual injury, Ob): 96%
- pest or weed control at 4.375 g/ha (kochia (KCHSC); Bassia scoparia, post-emergence, alone, 4.375 g/ha, read-out: % visual injury, Ob): 67%
- pest or weed control at 8.75 g/ha (kochia (KCHSC); Bassia scoparia, post-emergence, alone, 8.75 g/ha, read-out: % visual injury, Ob): 72%
- pest or weed control at 17.5 g/ha (kochia (KCHSC); Bassia scoparia, post-emergence, alone, 17.5 g/ha, read-out: % visual injury, Ob): 93%
- pest or weed control at 35 g/ha (kochia (KCHSC); Bassia scoparia, post-emergence, alone, 35 g/ha, read-out: % visual injury, Ob): 92%
- pest or weed control at 70 g/ha (kochia (KCHSC); Bassia scoparia, post-emergence, alone, 70 g/ha, read-out: % visual injury, Ob): 97%
- % visual injury, Ob (Russian thistle (SASKR); alone, 4.375 g/ha): 66%
- % visual injury, Ob (Russian thistle (SASKR); alone, 8.75 g/ha): 70%
- % visual injury, Ob (Russian thistle (SASKR); alone, 17.5 g/ha): 82%
- % visual injury, Ob (Russian thistle (SASKR); alone, 35 g/ha): 90%
- % visual injury, Ob (Russian thistle (SASKR); alone, 70 g/ha): 91%
- pest or weed control at 4.375 g/ha (wild mustard (SINAR); Brassica, post-emergence, alone, 4.375 g/ha, read-out: % visual injury, Ob): 85%
- pest or weed control at 8.75 g/ha (wild mustard (SINAR); Brassica, post-emergence, alone, 8.75 g/ha, read-out: % visual injury, Ob): 88%
- pest or weed control at 17.5 g/ha (wild mustard (SINAR); Brassica, post-emergence, alone, 17.5 g/ha, read-out: % visual injury, Ob): 98%
- pest or weed control at 35 g/ha (wild mustard (SINAR); Brassica, post-emergence, alone, 35 g/ha, read-out: % visual injury, Ob): 99%
- pest or weed control at 70 g/ha (wild mustard (SINAR); Brassica, post-emergence, alone, 70 g/ha, read-out: % visual injury, Ob): 100%
